Reference: ChEMBL document CHEMBL1201862, “PubChem BioAssay data set” (2004)
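Test compounds were applied to cells in 96-well plates for 48 hours at 5 doses. Here, GI50 denotes the concentration required for 50% inhibition of growth.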 The source made the active and inactive calls. Rule as the data show it: active = GI50 up to about 1.1 µM and inactive = higher.

Experiments:
Assay in all cases: inhibition of tumour cell growth, NCI panel, 48 h
[1] = system: SF-268
[2] = system: SK-OV-3
[3] = system: OVCAR-4
[4] = system: HOP-62
[5] = system: COLO 205
[6] = system: HCT-116
[7] = system: SN12C
[8] = system: A549
[9] = system: RXF 393
[10] = system: CCRF-CEM
[11] = system: KM12
[12] = system: ACHN
[13] = system: UACC-257
[14] = system: NCI-H23
[15] = system: U-251
[16] = system: HCT-15
[17] = system: NCI-H522
[18] = system: TK-10
[19] = system: A498

Row | SMILES | GI50 [1] | GI50 [2] | GI50 [3] | GI50 [4] | GI50 [5] | GI50 [6] | GI50 [7] | GI50 [8] | GI50 [9] | GI50 [10] | GI50 [11] | GI50 [12] | GI50 [13] | GI50 [14] | GI50 [15] | GI50 [16] [µM] | GI50 [17] | GI50 [18] | GI50 [19]
1 | Cc1ccc(C2=NN(C)COC2C(F)(F)F)cc1 (stereo unspecified) | > 100 µM (inactive) | > 100 µM (inactive) | > 100 µM (inactive) | > 100 µM (inactive) | > 100 µM (inactive) | > 100 µM (inactive) | > 100 µM (inactive) | > 100 µM (inactive) | > 100 µM (inactive) | > 100 µM (inactive) | > 100 µM (inactive) | > 100 µM (inactive) | > 100 µM (inactive) | > 100 µM (inactive) | > 100 µM (inactive) | > 100 | > 100 µM (inactive) |  | 
2 | COc1ccc(CC2(Cc3ccc(OC)cc3)CCOC2=O)cc1 | 45.8 µM (inactive) | > 100 µM (inactive) | > 100 µM (inactive) | 20.8 µM (inactive) | > 100 µM (inactive) | > 100 µM (inactive) | > 100 µM (inactive) | > 100 µM (inactive) |  | > 100 µM (inactive) | > 100 µM (inactive) | 94.8 µM (inactive) | > 100 µM (inactive) | > 100 µM (inactive) | > 100 µM (inactive) |  | 17.7 µM (inactive) | > 100 µM (inactive) | > 100 µM (inactive)
3 | CCOC(=O)/C(=C\c1ccc[nH]1)C(=O)c1ccccc1 | 91 µM (inactive) | > 100 µM (inactive) | > 100 µM (inactive) | > 100 µM (inactive) | > 100 µM (inactive) | > 100 µM (inactive) | > 100 µM (inactive) | > 100 µM (inactive) | 38.2 µM (inactive) | 58.3 µM (inactive) | 65.9 µM (inactive) | > 100 µM (inactive) | > 100 µM (inactive) | > 100 µM (inactive) | > 100 µM (inactive) | > 100 | > 100 µM (inactive) | > 100 µM (inactive) | 
4 | CCOC(=O)N1CCN(C=S)CC1 | > 100 µM (inactive) | > 100 µM (inactive) |  | > 100 µM (inactive) | > 100 µM (inactive) | > 100 µM (inactive) | > 100 µM (inactive) | > 100 µM (inactive) | > 100 µM (inactive) | > 100 µM (inactive) | > 100 µM (inactive) | > 100 µM (inactive) | > 100 µM (inactive) | > 100 µM (inactive) | > 100 µM (inactive) | > 100 | > 100 µM (inactive) | > 100 µM (inactive) | > 100 µM (inactive)
5 | O=S(=O)(c1ccccc1)C1(C2(S(=O)(=O)c3ccccc3)CCN=N2)CCN=N1 (stereo unspecified) | > 100 µM (inactive) | > 100 µM (inactive) | > 100 µM (inactive) |  | > 100 µM (inactive) | > 100 µM (inactive) | > 100 µM (inactive) | > 100 µM (inactive) | > 100 µM (inactive) | > 100 µM (inactive) | > 100 µM (inactive) | > 100 µM (inactive) | > 100 µM (inactive) | > 100 µM (inactive) | > 100 µM (inactive) | > 100 | > 100 µM (inactive) | > 100 µM (inactive) | 
6 | O=C(/C=C/c1ccccc1Cl)c1ccc(Cl)cc1Cl | 15 µM (inactive) | 19.4 µM (inactive) | 15.6 µM (inactive) | 23.2 µM (inactive) | 18.1 µM (inactive) | 8.47 µM (inactive) | 17.9 µM (inactive) | 21.3 µM (inactive) |  | 4.02 µM (inactive) | 11.4 µM (inactive) | 18.1 µM (inactive) | 15.9 µM (inactive) | 19.2 µM (inactive) | 12.9 µM (inactive) | 11.7 |  | 17.7 µM (inactive) | 18.8 µM (inactive)
7 | C(=N\c1ccc(-c2nc3ccccc3[nH]2)cc1)/c1ccc[nH]1 | 30.3 µM (inactive) |  | 54.2 µM (inactive) | 3.94 µM (inactive) | 41.3 µM (inactive) | 50.9 µM (inactive) | 63.2 µM (inactive) | > 100 µM (inactive) | 76.2 µM (inactive) | 11.4 µM (inactive) | 44.6 µM (inactive) | > 100 µM (inactive) | > 100 µM (inactive) | > 100 µM (inactive) |  | 76.6 | 35 µM (inactive) | > 100 µM (inactive) | 69.5 µM (inactive)
8 | Cc1cc2c(C)nn(Cc3ccccc3)c2c(C(N)=O)c1C | > 100 µM (inactive) | > 100 µM (inactive) | > 100 µM (inactive) | > 100 µM (inactive) | > 100 µM (inactive) | > 100 µM (inactive) | > 100 µM (inactive) | > 100 µM (inactive) |  | > 100 µM (inactive) | > 100 µM (inactive) | > 100 µM (inactive) | > 100 µM (inactive) | > 100 µM (inactive) | > 100 µM (inactive) | > 100 | 99.1 µM (inactive) | > 100 µM (inactive) | > 100 µM (inactive)
9 | Cc1ccc(/C=N/NS(=O)(=O)c2ccccc2)c(C)c1 | > 100 µM (inactive) | > 100 µM (inactive) | > 100 µM (inactive) | > 100 µM (inactive) | > 100 µM (inactive) | > 100 µM (inactive) | > 100 µM (inactive) | > 100 µM (inactive) | > 100 µM (inactive) | 78.9 µM (inactive) | > 100 µM (inactive) | > 100 µM (inactive) | 80 µM (inactive) | > 100 µM (inactive) | > 100 µM (inactive) | > 100 |  | > 100 µM (inactive) | > 100 µM (inactive)
10 | COc1ccccc1NC(=O)C1=C(C)NC(C)=C(C(=O)Nc2ccccc2OC)C1c1cccc2ccccc12 | 29.4 µM (inactive) | > 100 µM (inactive) | 2.77 µM (inactive) |  | > 100 µM (inactive) | 23.8 µM (inactive) | > 100 µM (inactive) | 21.9 µM (inactive) | 21.2 µM (inactive) | 20.7 µM (inactive) | 37.8 µM (inactive) | 11.7 µM (inactive) | > 100 µM (inactive) | 21.7 µM (inactive) | > 100 µM (inactive) | 28.4 |  | > 100 µM (inactive) | 33.9 µM (inactive)
11 | CC(C)(C)c1cc(C(OCCl)(C(F)(F)F)C(F)(F)F)c2c(c1)C(C(F)(F)F)(C(F)(F)F)OC21c2ccccc2C(=O)c2ccccc21 |  |  | > 100 µM (inactive) |  | > 100 µM (inactive) | > 100 µM (inactive) | > 100 µM (inactive) | > 100 µM (inactive) | > 100 µM (inactive) |  | > 100 µM (inactive) | > 100 µM (inactive) | > 100 µM (inactive) | > 100 µM (inactive) | > 100 µM (inactive) | > 100 | > 100 µM (inactive) | > 100 µM (inactive) | 
12 | C[N+](C)(C)CC(=O)N/N=C(/Cc1nc2c3c(ccc2nc1O)C(=O)c1ccccc1C3=O)C(=O)Nc1ccc(Cl)c(Cl)c1 | 26 µM (inactive) | 23.9 µM (inactive) | 87.9 µM (inactive) | 35.9 µM (inactive) | > 100 µM (inactive) | 43.3 µM (inactive) | 86.9 µM (inactive) | 42.7 µM (inactive) | 23.2 µM (inactive) | 4.16 µM (inactive) | 19.7 µM (inactive) | 24 µM (inactive) | > 100 µM (inactive) | 44.6 µM (inactive) |  |  | 22.9 µM (inactive) | 39.1 µM (inactive) | 33.7 µM (inactive)
13 | Cn1c(=O)oc2cc(C3CCC(=O)N3Cc3ccc(Cl)cc3)ccc21 (stereo unspecified) | > 100 µM (inactive) | 93.3 µM (inactive) | > 100 µM (inactive) | > 100 µM (inactive) | > 100 µM (inactive) | > 100 µM (inactive) | > 100 µM (inactive) | > 100 µM (inactive) | 29.6 µM (inactive) | > 100 µM (inactive) | > 100 µM (inactive) | > 100 µM (inactive) | > 100 µM (inactive) | > 100 µM (inactive) | > 100 µM (inactive) | > 100 | > 100 µM (inactive) | > 100 µM (inactive) | 
14 | COc1cc2c(cc1OC)NC(=O)NC(Cc1ccc3c(c1)OCO3)CC2 (stereo unspecified) | > 100 µM (inactive) | > 100 µM (inactive) | > 100 µM (inactive) | 51.5 µM (inactive) | > 100 µM (inactive) |  | > 100 µM (inactive) | > 100 µM (inactive) | > 100 µM (inactive) | > 100 µM (inactive) | > 100 µM (inactive) | > 100 µM (inactive) | > 100 µM (inactive) | > 100 µM (inactive) |  | > 100 | 29 µM (inactive) | > 100 µM (inactive) | 
15 | O=C(CCCCCCCCCCc1ccccc1)c1c(O)cccc1O | 23.8 µM (inactive) | 44.8 µM (inactive) | 25.3 µM (inactive) | 20.8 µM (inactive) | 23.8 µM (inactive) | 22.7 µM (inactive) | 18.7 µM (inactive) | 27.7 µM (inactive) | 19.4 µM (inactive) | 31.6 µM (inactive) | 18.4 µM (inactive) | 28.1 µM (inactive) | 20.2 µM (inactive) | 18.9 µM (inactive) | 21.2 µM (inactive) | 20 | 21.4 µM (inactive) | 39 µM (inactive) | 
16 | [N-]=[N+]=N[C@H]1C[C@@H](CO)O[C@H]1n1cnc2c(N)ncnc21 | > 100 µM (inactive) |  | > 100 µM (inactive) | > 100 µM (inactive) | > 100 µM (inactive) | > 100 µM (inactive) | > 100 µM (inactive) | > 100 µM (inactive) |  |  | > 100 µM (inactive) | > 100 µM (inactive) | > 100 µM (inactive) | > 100 µM (inactive) | > 100 µM (inactive) |  | > 100 µM (inactive) | > 100 µM (inactive) | 
